Test results published in patent US6635652B1, “Azaindolizinone derivatives and cerebral function improvers containing the same as the active ingredient” (Zenyaku Kogyo Kabushiki Kaisha, priority 1999, dated 2003).

Assays:
[1] = tested on: rats of the ICR strain; assay: Toxicity test on rats in a single dose through oral administration; type: in vivo; settings: oral administration of 2,000 mg/kg, suspended in 1% HPC, observation for 14 days
Method: Used in the test were rats of the ICR strain at 6 weeks of age (27.9±0.4 g body weight). They were allowed to freely take food and water; however, fasting was made for a period of 17 hours before administration of the test compounds and for a period of 4 hours after the administration. The respective test compounds were suspended in 1% of hydroxypropyl cellulose (HPC)and orally administered. Until 6 hours after the administration of the test compounds, observation was made frequently, and after that once a day and totally for 14 days.
Used as the test compounds were Compounds 8 and 10.

[2] = tested on: amnesia of rats induced by scopolamine; assay: Effects on scopolamine-induced amnesia (passive avoidance task, oral administration); type: in vivo; settings: Rattus norvegicus, po, 60 min before retention trial, scopolamine hydrobromide 2 mg/kg i.p., passive avoidance latency, male Strague Dawley rats, read-out: Inhibitory rate (%); for inhibition in vivo at 0.01 mg/kg: 0.01 mg/kg p.o.; for inhibition in vivo at 1 mg/kg: 1 mg/kg p.o.
Source text: Male rats of the Strague Dawley strain at 8 weeks of age (260±2 g body weight) were used for evaluation through passive avoidance task. The apparatus of passive avoidance task comprises illuminated and dark chambers which are separated from each other by a wall with a door. Floors are constituted by grids made of stainless steel; only the grid in the dark chamber is furnished with wiring for electrification.
Effected on the first and second days of testing was preparative training; each rat was placed in the illuminated chamber and left for 3 minutes to habituate to the apparatus. On the third day of testing, the rats were individually placed in the illuminated chamber and after entering the dark chamber, the door was closed and the floor grid was electrified to deliver electric shock (100 V, 0.4 mA, a period of 0.8 sec). In order to induce amnesia, scopolamine hydrobromide (2 mg/kg) was intraperitoneally injected 20 minutes before the electric shock was delivered. Retention in memory on the electric shock was tested 24 hours later; more specifically, retention in passive avoidance trial was measured in terms of a time interval (latency) from placement of each rat in the illuminated chamber to its entry into the dark chamber. The latency over 300 seconds was recorded as 300 seconds. Respective test compounds were suspended in an aqueous solution of 1% carboxymethyl cellulose and orally administered at a dose of 0.01 or 1 mg/kg 60 minutes before the trial.
Antiamnesic effects of the test compounds were evaluated by inhibitory rate (%) which is calculated by the following formula: [formula]
wherein T stands for latency and SC stands for administration of scopolamine hydrobromide. Experimental results are shown in the following table in which, as to each of the test compounds, only the dose showing higher inhibitory rate was indicated.

Row | SMILES | melting point [°C] | death after single oral dose [1] | inhibition in vivo at 0.01 mg/kg [2] [%] | inhibition in vivo at 1 mg/kg [2] [%]
1 | O=C1N=C2C=CC=CN2C1(Cc1ccccc1)Cc1ccccc1 [Compound 10, 3,3-Dibenzylimidazo[1,2-a]pyridin-2(3H)-one] | – | None of them induced death | 78.7 | –
2 | O=C1N=C2C=CC=CN2C1(Cc1ccc([N+](=O)[O-])cc1)Cc1ccc([N+](=O)[O-])cc1 [Compound 38, 3,3-bis(4-Nitrobenzyl)imidazo[1,2-a]pyridin-2(3H)-one] | > 300 | – | – | 58.5
3 | CC1=CC=CN2C1=NC(=O)C2(Cc1ccccc1)Cc1ccccc1 [Compound 8, 3,3-Dibenzyl-8-methylimidazo[1,2-a]pyridin-2(3H)-one] | – | None of them induced death | 34.8 | –

Now from value to molecule, other results behind:

Row | melting point [°C] | SMILES | death after single oral dose [1] | inhibition in vivo at 0.01 mg/kg [2] [%] | inhibition in vivo at 1 mg/kg [2] [%]
4 | 234 to 236 | O=C1N=C2C(Cl)=CC(C(F)(F)F)=CN2C1(Cc1ccccc1)Cc1ccccc1 [Compound 13, 3,3-Dibenzyl-8-chloro-6-trifluoromethylimidazo[1,2-a]pyridin-2(3H)-one] | – | 57 | –
5 | 247 to 248 | CC(C)OC1=CC=CN2C1=NC(=O)C2(Cc1ccccc1)Cc1ccccc1 [Compound 1, 3,3-Dibenzyl-8-isopropoxyimidazo[1,2-a]-pyridin-2(3H)-one] | – | – | 50.4
6 | 73 to 75 | CCCC1(CCC)C(=O)N=C2C=CC=CN21 [Compound 29, 3,3-Dipropylimidazo[1,2-a]pyridin-2(3H)-one] | – | – | 115
7 | > 300 | CN(C)c1ccc(CC2(Cc3ccc(N(C)C)cc3)C(=O)N=C3C=CC=CN32)cc1 [Compound 17, 3,3-bis(4-Dimethylaminobenzyl)imidazo[1,2-a]pyridin-2(3H)-one] | – | 33.1 | –
